Values after ≈ are worked out from the molar mass of the structure shown.

What is called IC50 is the concentration at which inhibition is half-maximal. For orientation: MIC90 means an inhibitory concentration at the 90% level, which refers to growth in some studies and to a panel of isolates in others. A higher MIC90 goes with weaker potency.

Data set [1] concerns Plasmodium falciparum. Kind of data set: Antiplasmodial against chloroquine-sensitive Plasmodium falciparum 3D7 assessed as inhibition of [3H]hypoxanthine incorporation after 24 hrs by scintillation counting. Format: functional, organism-based.
The test system of data set [2] is Plasmodium falciparum. The data set can be described thus: Antiplasmodial against chloroquine-rsistant Plasmodium falciparum K1 assessed as inhibition of [3H]hypoxanthine incorporation after 24 hrs by scintillation counting. The format is functional, organism-based.
The test system of data set [3] is Plasmodium falciparum. Kind of data set: Antiplasmodial against chloroquine-rsistant Plasmodium falciparum W2 after 2 days by flow cytometry. The note with it: W2, 48 h. Format: functional, organism-based. Background: Flow cytometry measures light scatter and fluorescence of single cells or particles in a stream.
Data set [4] deals with Mycobacterium tuberculosis. The data set can be described thus: Antimycobacterial activity against Mycobacterium tuberculosis H37Rv ATCC 27294 after 7 days by microplate alamar blue assay. Format: functional. The note with it: for MIC90: Mycobacterium tuberculosis, H37Rv ATCC 27294, 168 h. A general note: Resazurin is reduced to fluorescent resorufin, in cell work by metabolically active cells.

The test system of data set [5] is Mycobacterium tuberculosis. Kind of data set: Antimycobacterial activity against Mycobacterium tuberculosis H37Rv ATCC 27294 after 10 days by low oxygen recovery assay. The note with it: for MIC90: Mycobacterium tuberculosis, H37Rv ATCC 27294, 240 h. The format is functional.
Data set [6] is described as follows: Kinetic solubility of the compound at pH 7.4. Format: physicochemical. The settings on record: buffer, read-out: Kinetic_solubility.

Take `COc1ccc2nccc(C(c3nnnn3C(C)(C)C)N(C)C)c2c1` (stereo not given): the IC50 was 1310 nM in data set [1], 1310 nM in data set [2] and greater than 10000 nM in data set [3]. Also, the “inhibition (INH)” value in data set [4] worked out at 16%; in data set [5], 42%. The MIC90 in data set [4] and in data set [5] was greater than 128 µM each time. Moreover, in data set [6], the solubility kinetic was 189 µM (≈ 64.5 µg/mL).
Consider `CCN(CC)C(c1ccnc2ccc(OC)cc12)c1nnnn1C(C)(C)C` (stereo not given), for which the IC50 in data set [1] was 2390 nM; in data set [2] it was 2390 nM; in data set [3], greater than 10000 nM. Further, the entries for the “inhibition (INH)” value in data set [4] and in data set [5] were 83% and 94%, respectively. Besides, the MIC90 in data set [4] was greater than 128 µM; in data set [5] it was 123 µM (≈ 45.4 µg/mL). Moreover, in data set [6], the solubility kinetic was 137 µM (≈ 50.4 µg/mL).
Consider `COc1ccc2nccc(C(c3nnnn3C(C)(C)C)N3CCCC3)c2c1` (stereo not given), for which the IC50 in data set [1] is 13800 nM; in data set [2] it was 13800 nM; in data set [3] it was greater than 10000 nM. Moreover, the “inhibition (INH)” value in data set [4] is recorded as 24%; in data set [5], 30%. The MIC90 in data set [4] and in data set [5] was greater than 128 µM throughout.
Regarding `COc1ccc2nccc(C(c3nnnn3C(C)(C)C)N3CCCCC3)c2c1` (stereo not given), the IC50 is 647 nM in data set [1], 2630 nM in data set [2] and greater than 10000 nM in data set [3]. In addition, the “inhibition (INH)” value is given as 98% in data set [4] and 64% in data set [5]. The results for the MIC90 in data set [4] and in data set [5] were 92.5 µM (≈ 35.2 µg/mL) and greater than 128 µM, respectively. Further, the solubility kinetic in data set [6] came to 114 µM (≈ 43.5 µg/mL).
Turning to `COc1ccc2nccc(C(c3nnnn3C(C)(C)C)N3CCN(C)CC3)c2c1` (stereo not given), the concentration for half-maximal inhibition (IC50) was found to be 16800 nM in data set [1], 7950 nM in data set [2] and 8390 nM in data set [3]. The “inhibition (INH)” value in data set [4] and in data set [5] was 0% throughout. Also, the MIC90 in data set [4] and in data set [5] was greater than 128 µM in each case.
For the molecule `COc1ccc2nccc(C(c3nnnn3C(C)(C)C)N3CCOCC3)c2c1` (stereo not given), the half-maximal inhibitory concentration (IC50) in data set [1] was 980 nM; in data set [2], 1230 nM; in data set [3], greater than 10000 nM. Further, the entries for the “inhibition (INH)” value in data set [4] and in data set [5] were 0% and 32%, respectively. Besides, the MIC90 in data set [4] and in data set [5] was greater than 128 µM in each case. For the same molecule, the solubility kinetic in data set [6] came to 179 µM (≈ 68.3 µg/mL).
Consider `COc1ccc2nccc(C(c3nnn[nH]3)N3CCOCC3)c2c1` (stereo not given), for which the IC50 in data set [1] is 8620 nM; in data set [2] it was 6740 nM; in data set [3] it was greater than 10000 nM. The “inhibition (INH)” value in data set [4] came to 0%; in data set [5] it was 1%. Moreover, the MIC90 in data set [4] and in data set [5] was greater than 128 µM in each case. In addition, in data set [6], the solubility kinetic came to 202 µM (≈ 65.9 µg/mL).
Turning to `CN(C)C(c1cc(C(F)(F)F)nc2c(C(F)(F)F)cccc12)c1nnnn1C(C)(C)C` (stereo not given), the IC50 in data set [2] is 4520 nM. The molecule further came in with an MIC90 in data set [4] greater than 160 µM.
For the molecule `CCN(CC)C(c1cc(C(F)(F)F)nc2c(C(F)(F)F)cccc12)c1nnnn1C(C)(C)C` (stereo not given), the IC50 in data set [2] is 2320 nM. Moreover, the MIC90 in data set [4] was greater than 160 µM.
Take `O[C@@H](c1cc(C(F)(F)F)nc2c(C(F)(F)F)cccc12)[C@H]1CCCCN1` (relative stereo) [(S,R)-MEFLOQUINE]: the MIC90 in data set [4] amounted to 10 µM (≈ 3.78 µg/mL).
`NNC(=O)c1ccncc1` [ISONIAZID]: in data set [4], the “inhibition (INH)” value was determined as 92% and the MIC90 was 0.23 µM (≈ 0.0315 µg/mL). Moreover, in data set [5], the “inhibition (INH)” value is on record as 64% and the MIC90 is greater than 128 µM.
Consider `NC[C@H]1O[C@H](O[C@H]2[C@H](O)[C@@H](O[C@H]3O[C@H](CO)[C@@H](O)[C@H](N)[C@H]3O)[C@H](N)C[C@@H]2N)[C@H](O)[C@@H](O)[C@@H]1O` [KANAMYCIN], for which the MIC90 in data set [4] is 3.12 µM (≈ 1.51 µg/mL).
Take `O=[N+]([O-])c1cn2c(n1)OC[C@@H](OCc1ccc(OC(F)(F)F)cc1)C2` [PRETOMANID]: in data set [4], the “inhibition (INH)” value amounted to 99% and the MIC90 amounted to 0.12 µM (≈ 0.0431 µg/mL). In addition, in data set [5], the “inhibition (INH)” value was found to be 100% and the MIC90 was 3.78 µM (≈ 1.36 µg/mL).
Turning to `C=C[C@H]1CN2CC[C@H]1C[C@H]2[C@H](O)c1ccnc2ccc(OC)cc12` [QUININE], the figures for the IC50 in data set [1], in data set [2] and in data set [3] were 0.7 nM, 20.4 nM and 18.7 nM, respectively. The “inhibition (INH)” value in data set [4] came out at 95%; in data set [5], 98%. Also, the MIC90 in data set [4] amounted to 120 µM (≈ 38.8 µg/mL); in data set [5], 122 µM (≈ 39.6 µg/mL).
On to `CO[C@H]1/C=C/O[C@@]2(C)Oc3c(C)c(O)c4c(O)c(c(/C=N/N5CCN(C)CC5)c(O)c4c3C2=O)NC(=O)/C(C)=C\C=C\[C@H](C)[C@H](O)[C@@H](C)[C@@H](O)[C@@H](C)[C@H](OC(C)=O)[C@@H]1C` [RIFAMPIN], for which, in data set [4], the “inhibition (INH)” value is 100% and the MIC90 stood at 0.05 µM (≈ 0.0411 µg/mL). In data set [5], the “inhibition (INH)” value was 98% and the MIC90 was determined as 1.93 µM (≈ 1.59 µg/mL).
In the case of `CN[C@@H]1[C@H](O[C@H]2[C@H](O[C@H]3[C@H](O)[C@@H](O)[C@H](N=C(N)N)[C@@H](O)[C@@H]3N=C(N)N)O[C@@H](C)[C@]2(O)C=O)O[C@@H](CO)[C@H](O)[C@H]1O` [STREPTOMYCIN], the MIC90 in data set [4] worked out at 0.4 µM (≈ 0.233 µg/mL).

The values above are taken from ChEMBL document CHEMBL2086295, “The design, synthesis, in silico ADME profiling, antiplasmodial and antimycobacterial evaluation of new arylamino quinoline derivatives” (Eur J Med Chem, 2012).
